According to patent US20030166707A1, “Microsphaeropsin B as novel antibacterial agent, process for producing the same and pharmaceutical composition containing thereof” (priority 2001, published 2003):
Values after ≈ are worked out from the molar mass of the structure shown. Where two headings read alike, the source gives them in different places.

Key:
[1] = system: E. coli ATCC 25922; assay: MIC, standard microbroth dilution (NCCLS); format: cell-based; conditions: Escherichia coli, read-out: Antibacterial activity (MIC)
Protocol: (§1) The compounds of the present invention were tested for minimum inhibitory concentrations (MICs) against the bacteria listed in Table-1 according to the standard microbroth dilution method as described in a NCCLS document. The minimum inhibitory concentrations wer expressed in μg/ml. The test bacteria of 5×10^5 CFU/ml each were subjected to serial dilutions of the test material under aerobic conditions at 35° C. for 18 hours using Mueller Hinton broth. After incubation, the first concentration of wells to show a complete growth inhibition was considered as the MIC.

[2] = system: E. faecalis 2322 VRE; assay: MIC, standard microbroth dilution (NCCLS); format: cell-based; conditions: Enterococcus faecalis, read-out: Antibacterial activity (MIC)
Protocol: as §1

[3] = system: E. faecalis 2353 VSE; assay: MIC, standard microbroth dilution (NCCLS); format: cell-based; conditions: Enterococcus faecalis, read-out: Antibacterial activity (MIC)
Protocol: as §1

[4] = system: S. aureus ATCC 29213; assay: MIC, standard microbroth dilution (NCCLS); format: cell-based; conditions: Staphylococcus aureus, read-out: Antibacterial activity (MIC)
Protocol: as §1

[5] = system: S. aureus TN1152MRSA; assay: MIC, standard microbroth dilution (NCCLS); format: cell-based; conditions: Staphylococcus aureus, read-out: Antibacterial activity (MIC)
Protocol: as §1

[6] = system: S. epdermidis ATCC1228; assay: MIC, standard microbroth dilution (NCCLS); format: cell-based; conditions: read-out: Antibacterial activity (MIC)
Protocol: as §1

[7] = Solubility characteristics of isolated Microsphaeropsin B; format: physicochemical
[8] = ATCC25922, E. coli ATCC 25922, 5×10^5 CFU/ml, Mueller Hinton broth, aerobic, 35° C., 18 hours
[9] = E. faecalis 2322 VRE, 5×10^5 CFU/ml, Mueller Hinton broth, aerobic, 35° C., 18 hours
[10] = E. faecalis 2353 VSE, 5×10^5 CFU/ml, Mueller Hinton broth, aerobic, 35° C., 18 hours
[11] = ATCC29213, S. aureus ATCC 29213, 5×10^5 CFU/ml, Mueller Hinton broth, aerobic, 35° C., 18 hours
[12] = S. aureus TN1152MRSA, 5×10^5 CFU/ml, Mueller Hinton broth, aerobic, 35° C., 18 hours
[13] = S. epdermidis ATCC1228, 5×10^5 CFU/ml, Mueller Hinton broth, aerobic, 35° C., 18 hours

CC1(C)S[C@@H]2[C@H](NC(=O)[C@H](N)c3ccccc3)C(=O)N2[C@H]1C(=O)O [Ampicillin]
MIC [1, 8]: 2 mg/L (≈ 5.72 µM) | MIC [2, 9]: 32 mg/L (≈ 91.6 µM) | MIC [3, 10]: 0.25 mg/L (≈ 0.715 µM) | MIC [4, 11]: 0.062 mg/L (≈ 0.177 µM) | MIC [5, 12]: 8 mg/L (≈ 22.9 µM) | MIC [6, 13]: 16 mg/L (≈ 45.8 µM)

C/C=C/C=C/C1C=CC2CC(C)CCC2C1(C)C(=O)C1=C(O)C(C(C)O)NC1=O (stereo not shown) [Microsphaeropsin B]
MIC [1, 8]: > 32 mg/L | MIC [2, 9]: 2 mg/L (≈ 5.01 µM) | MIC [3, 10]: 1 mg/L (≈ 2.5 µM) | MIC [4, 11]: 0.5 mg/L (≈ 1.25 µM) | MIC [5, 12]: 0.5 mg/L (≈ 1.25 µM) | MIC [6, 13]: 1 mg/L (≈ 2.5 µM) | Behaviour on addition of water ([7]; dissolution in ethanol or dimethyl sulphoxide followed by addition of water): immediate precipitate formation | Solubility ([7]; in 1M sodium hydroxide solution): insoluble | Solubility ([7]; in 5% sodium bicarbonate): insoluble | Solubility ([7]; in water): insoluble

CN[C@H](CC(C)C)C(=O)N[C@H]1C(=O)N[C@@H](CC(N)=O)C(=O)N[C@H]2C(=O)N[C@H]3C(=O)N[C@H](C(=O)N[C@H](C(=O)O)c4cc(O)cc(O)c4-c4cc3ccc4O)[C@H](O)c3ccc(c(Cl)c3)Oc3cc2cc(c3O[C@@H]2O[C@H](CO)[C@@H](O)[C@H](O)[C@H]2O[C@H]2C[C@](C)(N)[C@H](O)[C@H](C)O2)Oc2ccc(cc2Cl)[C@H]1O [Vancomycin]
MIC ([1]; ATCC25922, 18 h): > 32 mg/L | MIC ([2]; VRE, 18 h): 16 mg/L (≈ 11 µM) | MIC ([3]; 2353VSE, 18 h): 0.25 mg/L (≈ 0.173 µM) | MIC ([4]; ATCC29213, 18 h): 0.5 mg/L (≈ 0.345 µM) | MIC ([5]; TN1152MRSA, 18 h): 0.25 mg/L (≈ 0.173 µM) | MIC ([6]; 18 h): 0.5 mg/L (≈ 0.345 µM)
